Key:
[1] = biological target: Human immunodeficiency virus type 1 integrase (Human immunodeficiency virus 1, UniProt Q7ZJM1); assay: Inhibition of HIV-1 subtype C integrase in presence of biotinylated DNA by colorimetric analysis
[2] = Cytotoxicity against HEK293 cells after 48 hrs by resazurin dye-based fluorescence assay; assay type: cell-based; conditions: human
[3] = test system: HEK293; assay: Cytotoxicity against HEK293 cells at 100 uM after 48 hrs by resorufin dye-based fluorescence assay relative to control; assay type: cell-based; conditions: human, hek293, 48 h

Sequence of Human immunodeficiency virus type 1 integrase (Q7ZJM1 whole entry): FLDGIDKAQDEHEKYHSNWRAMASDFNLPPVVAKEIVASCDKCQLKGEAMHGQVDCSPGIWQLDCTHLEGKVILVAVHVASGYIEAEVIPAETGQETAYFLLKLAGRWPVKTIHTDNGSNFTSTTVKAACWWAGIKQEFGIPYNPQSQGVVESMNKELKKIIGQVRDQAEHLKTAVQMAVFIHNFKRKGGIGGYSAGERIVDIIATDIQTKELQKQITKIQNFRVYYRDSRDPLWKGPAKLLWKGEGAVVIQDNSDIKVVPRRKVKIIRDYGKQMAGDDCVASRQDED

| Compound | IC50 [1] | CC50 at 48 h [2] | Activity [3] |
| --- | --- | --- | --- |
| O=C(O)CC(O)/C=N/c1cc(Cl)cc(Cl)c1O (configuration not stated) | > 100 µM | 101 µM |  |
| O=C(O)CC(O)/C=N/c1ccc(O)c(O)c1 (configuration not stated) | 38.7 µM |  | Non-Toxic |
| O=C(O)CC(O)/C=N/c1cc(Cl)cc(Br)c1O (configuration not stated) | > 100 µM | 109 µM |  |
| O=C(O)CC(O)/C=N/c1ccccc1O (configuration not stated) | > 100 µM |  | Non-Toxic |
| O=C(O)CC(O)/C=N/c1ccc(O)c(O)c1O (configuration not stated) | 3.52 µM |  | Non-Toxic |
| O=C(O)CC(O)/C=N/c1cc([N+](=O)[O-])ccc1O (configuration not stated) | 65.1 µM |  | Non-Toxic |
| O=C(O)CC(O)/C=N/c1cccc(O)c1O (configuration not stated) | 53.2 µM |  | Non-Toxic |
| O=C(O)CC(O)/C=N/c1cc(Br)cc(Br)c1O (configuration not stated) | 26.4 µM | 104 µM |  |
| CC[C@H]1CN2CCc3cc(OC)c(OC)cc3[C@@H]2C[C@@H]1C[C@H]1NCCc2cc(OC)c(OC)cc21 [EMETINE] |  | 0.071 µM |  |

From ChEMBL document CHEMBL4219094, “Synthesis and evaluation of substituted 4-arylimino-3-hydroxybutanoic acids as potential HIV-1 integrase inhibitors” (Bioorg Med Chem Lett, 2018)
